≈ marks a conversion by molar mass, not a printed value.
How the values were obtained:
Assay type in all cases: physicochemical
[1] = Competitive slurrying experiment of crystalline forms I, III, VII and IX in butanone and isopropyl acetate; conditions: VII and IX slurried with butanone and isopropyl acetate
Protocol: A competitive slurrying experiment was carried out by slurrying a certain amount of each of the crystalline forms I, III, VII and IX with butanone and isopropyl acetate.

[2] = Test for effects of humidity on crystalline forms III and VII at 40° C. (XRPD); conditions: for physical stability (XRPD) / crystalline form change (XRPD): 40° C., 23 h; for physical stability (XRPD): 70% RH; for crystalline form change (XRPD): 80% and 90% RH; for physical stability: at 70% RH or less
Protocol: Therefore, they were further studied at 40° C. for the effects of humidity.

[3] = HPLC purity of the solubility test samples (stability in biological media); conditions: for HPLC (24 h): calculated as 100% HPLC purity before; for HPLC purity change: all three biological media, calculated as 100% HPLC purity before standing in the media
Protocol: (§1) The solubility of both the crystalline forms III and VII increased with decreasing pH value of the biological medium. Both the crystalline forms were most soluble in SGF (0.323 mg/mL VS 0.183 mg/mL @ 0.5 h) and least soluble in FaSSIF (0.034 mg/mL VS 0.025 mg/mL @ 0.5 h). […] Both the crystalline forms degraded to a certain extent as the stirring continued in the solubility test. The crystalline forms of the crystalline forms III and VII in all the three biological media changed. […] Thus, the compound is unstable in biological media (Table 13).

[4] = Solubility test in biological media (SGF, FaSSIF, FeSSIF) with XRPD of samples after the test; conditions: for solubility at 0.5 h / solubility at 2 h / solubility at 24 h: thermodynamic from solid
Protocol: as §1

[5] = Solid stability and chemical stability of crystalline forms III and VII (60° C./sealed and 40° C./75% RH/open, 7 days; HPLC, XRPD); conditions: for chemical stability / crystalline form change (XRPD): 40° C./75% RH (open); for chemical stability / crystalline form change (XRPD) / physical and chemical stability / Purity-7 days (Area %): 7 days; for physical and chemical stability: 60° C. (sealed); for Purity-7 days (Area %) / Initial purity (Area %): HPLC; for Initial purity (Area %): before stability storage
Protocol: The crystalline forms III and VII were subjected to solid stability and chemical stability experiments under conditions of 60° C./sealed and 40° C./75% RH/open for 7 days. […] The amount of the crystalline form IV that formed in the crystalline form III is slightly greater than that in the crystalline form VII.

[6] = DVS (dynamic vapor sorption) hygroscopicity test with XRPD of the post-DVS sample; conditions: for hygroscopicity (DVS): within a range of 0-80% RH, 25° C.
Protocol: DVS tests were carried out using a dynamic vapor sorption instrument (Vsorp-Enhanced, proUmid) under the following conditions: adding a sufficient amount of a sample to the Vsorp-Enhanced instrument for simulation of dynamic vapor sorption, recording changes in weight at 25° C. with different humidity equilibrium levels, and subjecting the post-DVS test sample to an XRPD test.
The crystalline form III was characterized by XRPD, PLM, DSC, TGA and DVS. […] (FIG. 8). […] (FIG. 8). The DVS results (FIG. 9) show slight hygroscopicity at only 0.22% within a range of 0-80% RH.
The crystalline form VII was characterized by XRPD, PLM, DSC, TGA and DVS.

SMILES	physical stability (XRPD) [2]	crystalline form change (XRPD) [2]	physical stability [2]	HPLC (24 h) ([3]; FaSSIF) [%]	HPLC (24 h) ([3]; FeSSIF) [%]	HPLC (24 h) ([3]; SGF) [%]	HPLC purity change [3]	crystalline form after solubility test (XRPD) ([4]; FaSSIF)	pH ([4]; FaSSIF, 0.5 h)	Solubility ([4]; FaSSIF, 2 h) [µg/mL]	pH ([4]; FaSSIF, 2 h)	pH ([4]; FaSSIF, 24 h)	crystalline form after solubility test (XRPD) ([4]; FeSSIF)	pH ([4]; FeSSIF, 0.5 h)	pH ([4]; FeSSIF, 2 h)	pH ([4]; FeSSIF, 24 h)	crystalline form after solubility test (XRPD) ([4]; SGF)	pH ([4]; SGF, 0.5 h)	pH ([4]; SGF, 2 h)	pH ([4]; SGF, 24 h)	other results
COc1cc2nn([C@H]3CC[C@](C)(O)CC3)cc2cc1NC(=O)c1cccc(C)[n+]1[O-] [crystalline form VII, 2-((2-(trans-4-hydroxy-cis-4-methylcyclohexyl)-6-methoxy-2H-indazol-5-yl)carbamoyl)-6-methylpyridine 1-oxide]	physically stable	a small amount of hydrate crystalline form IV formed	physically stable	93.49	93.13	99.46	decreased to a certain extent	transformed into the crystalline form IV	6.42	29 (≈ 70.7 µM)	6.44	6.48	transformed into the crystalline form IV	4.86	4.90	4.91	a crystal mixture of the crystalline forms IV and XV	1.23	1.16	1.26	crystalline form resulting from competitive slurrying [1]: can be produced from various slurrying processes; Solubility ([4]; FaSSIF, 0.5 h): 25 µg/mL (≈ 60.9 µM); Solubility ([4]; FaSSIF, 24 h): 7 µg/mL (≈ 17.1 µM); solubility at 0.5 h ([4]; FeSSIF, 0.5 h): 68 µg/mL (≈ 166 µM); solubility at 2 h ([4]; FeSSIF, 2 h): 65 µg/mL (≈ 158 µM); solubility at 24 h ([4]; FeSSIF, 24 h): 65 µg/mL (≈ 158 µM); Solubility ([4]; SGF, 0.5 h): 183 µg/mL (≈ 446 µM); solubility at 2 h ([4]; SGF, simulated gastric fluid, 2 h): 147 µg/mL (≈ 358 µM); solubility at 24 h ([4]; SGF, simulated gastric fluid, 24 h): 92 µg/mL (≈ 224 µM); chemical stability [5]: chemically stable; crystalline form change (XRPD) [5]: a small amount of hydrate crystalline form IV formed; physical and chemical stability [5]: physically and chemically stable; Purity-7 days (Area %) ([5]; 40° C./75% RH, open): 99.93 Area %; Purity-7 days (Area %) ([5]; 60° C., sealed): 99.94 Area %; Initial purity (Area %) [5]: 99.92 Area %; crystalline form after the DVS test (XRPD) [6]: remained the same as that before the DVS test; hygroscopicity (DVS) [6]: 0.29%
COc1cc2nn([C@H]3CC[C@](C)(O)CC3)cc2cc1NC(=O)c1cccc(C)[n+]1[O-] [crystalline form III, 2-((2-(trans-4-hydroxy-cis-4-methylcyclohexyl)-6-methoxy-2H-indazol-5-yl)carbamoyl)-6-methylpyridine 1-oxide]	physically stable	a small amount of hydrate crystalline form IV formed	physically stable	97.99	96.89	99.69	decreased to a certain extent	transformed into the crystalline form IV	6.47	9 (≈ 21.9 µM)	6.47	6.45	a crystal mixture of the crystalline forms IV and XIII	4.88	4.92	4.94	transformed into the crystalline form IV	1.09	1.07	1.24	solubility at 0.5 h ([4]; FaSSIF, 0.5 h): 34 µg/mL (≈ 82.8 µM); solubility at 24 h ([4]; FaSSIF, 24 h): 7 µg/mL (≈ 17.1 µM); Solubility ([4]; FeSSIF, 0.5 h): 105 µg/mL (≈ 256 µM); Solubility ([4]; FeSSIF, 2 h): 67 µg/mL (≈ 163 µM); Solubility ([4]; FeSSIF, 24 h): 58 µg/mL (≈ 141 µM); Solubility ([4]; SGF, 2 h): 289 µg/mL (≈ 704 µM); Solubility ([4]; SGF, 24 h): 89 µg/mL (≈ 217 µM); solubility at 0.5 h ([4]; SGF, simulated gastric fluid, 0.5 h): 323 µg/mL (≈ 787 µM); solubility at 0.5 h relative to crystalline form VII ([4]; all three biological media, 0.5 h): 1.5 times; chemical stability [5]: chemically stable; crystalline form change (XRPD) [5]: a small amount of hydrate crystalline form IV formed; physical and chemical stability [5]: physically and chemically stable; Purity-7 days (Area %) ([5]; 40° C./75% RH, open): 99.96 Area %; Purity-7 days (Area %) ([5]; 60° C., sealed): 99.97 Area %; Initial purity (Area %) [5]: 99.96 Area %; crystalline form after the DVS test (XRPD) [6]: transformed into a crystal mixture of the crystalline forms III and IV; hygroscopicity (DVS) [6]: 0.22%

From patent US20240182443A1, “POLYMORPHIC FORMS OF COMPOUND AND PREPARATION METHOD THEREFOR AND APPLICATION THEREOF” (SHANGHAI MEIYUE BIOTECH DEVELOPMENT CO., LTD., priority 2021, published 2024)
